Assay results from patent publication US20050261290A1, “Novel compounds of proline and morpholine derivatives” (priority 2004, published 2005).

Key:
human 11b-hsd-1 = human 11b-hsd-1 (Homo sapiens, UniProt P28845); assay: Inhibition constant Ki of human 11b-hsd-1 (3H-cortisone to 3H-cortisol conversion, HPLC); assay type: biochemical; details: for inhibition at 0.1 µM: 0.1 μM compound; for Ki: apparent Ki, read-out: Ki app
Procedure: In each well, varying amounts of compounds are incubated with a fixed amount of 11b-hsd-1 (4 nM) and NADPH (500 μM) for 30 to 40 min at room temperature in the assay buffer. The enzyme concentration was determined by titration using reversible tight-binding inhibitors. […] The area of 3H-cortisol is calculated and plotted versus time to determine a linear velocity. […] Where vi, and vo are the rates of cortisol formation in the presence and in the absence of inhibitor, respectively, I is the inhibitor concentration and E is the 11 b-hsd-1 concentration in the assay buffer. […] NADPH, Glucose-6-Phosphate (G6P), and Glucose-6-Phosphate dehydrogenase was purchased from Sigma.

healthy human volunteers = healthy human volunteers treated with carbenoxolone; cited from earlier work
normal subjects = details: ingestion; cited from earlier work
bone nodule formation = details: cited from earlier work

human 11b-hsd-1, sequence (P28845 whole entry): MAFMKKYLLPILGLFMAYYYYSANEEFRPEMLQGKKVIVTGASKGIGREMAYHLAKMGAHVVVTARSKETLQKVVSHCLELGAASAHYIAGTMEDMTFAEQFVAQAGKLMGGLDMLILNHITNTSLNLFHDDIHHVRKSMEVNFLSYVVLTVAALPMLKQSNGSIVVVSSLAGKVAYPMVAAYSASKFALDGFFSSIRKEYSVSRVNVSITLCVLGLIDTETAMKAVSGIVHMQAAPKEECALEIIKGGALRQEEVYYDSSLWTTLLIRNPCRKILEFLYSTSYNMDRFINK

inhibition at 0.1 µM (human 11b-hsd-1)	Ki (human 11b-hsd-1)	SMILES	hepatic insulin sensitivity (healthy human volunteers)	reduction of the intraocular pressure (normal subjects)	negative effect of glucocorticoid on bone nodule formation (bone nodule formation)
100%	2.7 nM	Cc1cccc(O[C@@H]2CN[C@H](C(=O)NC3C4CC5CC(C4)CC3C5)C2)c1 (stereo partly shown) [Example 348]			
100%	1.8 nM	Cc1cc(Cl)ccc1O[C@@H]1CN[C@H](C(=O)NC2C3CC4CC(C3)CC2C4)C1 (stereo partly shown) [Example 349]			
100%	2.2 nM	CCc1ccccc1O[C@@H]1CN[C@H](C(=O)NC2C3CC4CC(C3)CC2C4)C1 (stereo partly shown) [Example 350]			
100%	1 nM	Cc1cc(O[C@@H]2CN[C@H](C(=O)NC3C4CC5CC(C4)CC3C5)C2)ccc1F (stereo partly shown) [Example 351]			
100%	1 nM	O=C(NC1C2CC3CC(C2)CC1C3)[C@@H]1C[C@H](Oc2cc(F)ccc2F)CN1 (stereo partly shown) [Example 352]			
100%	4.9 nM	COc1cc(F)ccc1O[C@@H]1CN[C@H](C(=O)NC2C3CC4CC(C3)CC2C4)C1 (stereo partly shown) [Example 353]			
100%	2.1 nM	CCc1ccc(O[C@@H]2CN[C@H](C(=O)NC3C4CC5CC(C4)CC3C5)C2)c(OC)c1 (stereo partly shown) [Example 354]			
100%	1 nM	O=C(NC1C2CC3CC(C2)CC1C3)[C@@H]1C[C@H](Oc2ccc(F)c(F)c2F)CN1 (stereo partly shown) [Example 355]			
100%	1.4 nM	Cc1cc(F)ccc1O[C@@H]1CN[C@H](C(=O)NC2C3CC4CC(C3)CC2C4)C1 (stereo partly shown) [Example 356]			
100%	2.1 nM	O=C(NC1C2CC3CC(C2)CC1C3)[C@@H]1C[C@H](Oc2cccc(C(F)(F)F)c2)CN1 (stereo partly shown) [Example 357]			
100%	4.5 nM	CCOc1cccc(O[C@@H]2CN[C@H](C(=O)NC3C4CC5CC(C4)CC3C5)C2)c1 (stereo partly shown) [Example 358]			
80.7%	44 nM	Cc1ncccc1O[C@@H]1CN[C@H](C(=O)NC2C3CC4CC(C3)CC2C4)C1 (stereo partly shown) [Example 359]			
100%	1.4 nM	O=C(NC1C2CC3CC(C2)CC1C3)[C@@H]1C[C@H](Oc2ccccc2Cl)CN1 (stereo partly shown) [Example 360]			
100%	1.9 nM	CCOc1ccccc1O[C@@H]1CN[C@H](C(=O)NC2C3CC4CC(C3)CC2C4)C1 (stereo partly shown) [Example 361]			
100%	1.1 nM	O=C(NC1C2CC3CC(C2)CC1C3)[C@@H]1C[C@H](Oc2cc(F)c(F)c(F)c2)CN1 (stereo partly shown) [Example 362]			
100%	1 nM	O=C(NC1C2CC3CC(C2)CC1C3)[C@@H]1C[C@H](Oc2c(F)cc(F)cc2F)CN1 (stereo partly shown) [Example 363]			
100%	4.6 nM	CC(C)Oc1ccccc1O[C@@H]1CN[C@H](C(=O)NC2C3CC4CC(C3)CC2C4)C1 (stereo partly shown) [Example 364]			
100%	1 nM	O=C(NC1C2CC3CC(C2)CC1C3)[C@@H]1C[C@H](Oc2ccc(Cl)c(F)c2)CN1 (stereo partly shown) [Example 365]			
94.9%	15 nM	O=C(NC1C2CC3CC(C2)CC1C3)[C@H]1NCC[C@@H]1CC1CCCCC1 (stereo partly shown) [Example 366]			
93.5%	7.5 nM	O=C(NC1C2CC3CC(C2)CC1C3)[C@H]1NCC[C@@H]1c1ccc(Cl)cc1 (stereo partly shown) [Example 367]			
96.4%	6.8 nM	O=C(NC1C2CC3CC(C2)CC1C3)[C@H]1NCC[C@@H]1Cc1ccc(F)cc1 (stereo partly shown) [Example 368]			
100%	6.6 nM	O=C(NC1C2CC3CC(C2)CC1C3)[C@H]1NCC[C@@H]1Cc1ccccc1 (stereo partly shown) [Example 369]			
88.7%	10 nM	O=C(NC1CCCCC1)[C@@H]1C[C@H](Oc2ccc(Cl)cc2)CN1 [Example 370]			
86.2%		O=C(NC1CCCCC1)[C@@H]1C[C@H](Oc2cc(F)ccc2F)CN1 [Example 371]			
97.4%		O=C(NC1CCCCC1)[C@@H]1C[C@H](Oc2c(F)cc(F)cc2F)CN1 [Example 372]			
91.8%		O=C(NC1CCCCC1)[C@@H]1C[C@H](Oc2ccc(Cl)c(F)c2)CN1 [Example 373]			
		CC1(C)[C@@H](OC(=O)CCC(=O)O)CC[C@]2(C)[C@H]3C(=O)C=C4[C@@H]5C[C@@](C)(C(=O)O)CC[C@]5(C)CC[C@@]4(C)[C@]3(C)CC[C@@H]12 [carbenoxolone]	improved	20%	blocked
